Data as given in patent publication US6555547B1, “Method for treating a patient with neoplasia by treatment with a vinca alkaloid derivative” (Cell Pathways, Inc., priority 2000, dated 2003).
Entries after “also recorded” stand apart in the source; their conditions may differ.

Experiments:
[1] = test system: Peak B from SW480, HTB-26, and LnCAP; assay: Peak B cGMP PDE activity from SW480, HTB-26 and LnCAP (FPLC); assay type: biochemical; conditions: 100 nM; Peak B from SW480, HTB-26, LnCAP
Experimental: The novel Peak B was also isolated from two other neoplastic cell lines, a breast cancer cell line, HTB-26, and a prostate cancer cell line, LnCAP, by a procedure similar to the one above used to isolate it from SW480. The protocol was modified in several respects. To provide even greater reproducibility to allow comparison of different cell lines, a Pharmacia AKTA FPLC was used to control sample loading and elution on an 18 mL DEAE TrisAcryl M column. SW840 was run by this same procedure multiple times to provide a reference of Peak B. 200-400 million cells of SW480 were used for the profiles. 70 million cells of LnCAP were used for a profile (see FIGS. 22 and 23), and in a separate experiment 32 million cells of HTB-26 were used for a profile (see FIGS. 20 and 21). After re-suspending cells in homogenization buffer, samples were manually homogenized. FPLC buffer A was 8 mM TRIS-acetate, 5 mM Mg acetate, 0.1 mM EDTA, pH 7.5 and buffer B was 8 mM TRIS-acetate, 5 mM Mg acetate, 0.1 mM EDTA, 1 M Na acetate, pH 7.5. Supernatants were loaded onto the column at 1 mL per minute, followed by a wash with 60 mL buffer A at 1 mL per minute. A gradient was run from 0-15% buffer B in 60 mL, 15-50% buffer B in 60 mL, and 50-100% buffer B in 16 mL. During the gradient 1.5 mL fractions were collected.

[2] = target: T1, cGMP binding sites of GST-cGB-PDE5 fusion protein (Homo sapiens, UniProt O76074); assay: cGMP binding assay; conditions: 3H-cGMP 2 μM
T1 construct: made in house; host or cells: E. coli BL21 (DE3)

[3] = Side effects of exisulind in patients; assay type: in vivo
Description: This effect is reversible, and liver enzymes return to normal levels when the administered dose of exisulind returns to the traditionally recommended level or when treatment is discontinued. The most serious side effects of vinca alkaloid derivatives, on the other hand, are myelosuppressions.

[4] = test system: Calu-6 adenocarcinoma cell line; assay: Cell growth, alone and in combination with vinca alkaloid; assay type: cell-based, human; conditions: for Lower concentration required on continuous exposure than 1-hour exposure for same effect: FIGS. 28-29, 32-33; for Effect when combined with vinca alkaloid: both cell lines (Calu-6, H460), 1-hour and continuous exposures
Experimental: (§1) Exisulind and Compound I were analyzed using two human lung cancer cell lines; H460, a large cell carcinoma with a doubling time of 16 hours, and Calu-6, an adenocarcinoma with a doubling time of 21 hours. Exisulind and Compound I were analyzed alone and in combination with the vinca alkaloid, Navelbine™ vinorelbine. The cytotoxic agents were administered for 1 hour, while exisulind and Compound I were administered for either 1 hour or given as a continuous exposure.
(§2) Cells were plated on day 0 and allowed to attach. On day 1, the cells were exposed to one of the cytotoxic agents dissolved in media pre-warmed to 37° C. and incubated at 37° C. for 1 hour. The cells were then washed twice and re-fed pre-warned media with or without either exisulind or Compound I and incubated for one hour at 37° C. After the one-hour incubation, the cells were washed twice, re-fed, and returned to the incubator; the continuous exposure cultures were not washed and re-fed. Appropriate controls were included for each condition. […] All data points were done in triplicate and the mean graphed as a percent of control growth.
(§3) Exisulind and Compound I were first dissolved in DMSO and brought to the desired concentrations by slowly adding warm media to the drug-DMSO solution to prevent precipitation.

[5] = test system: β-catenin and PKG in SW480 cells; assay: Western blot of β-catenin and PKG in SW480 cells; assay type: cell-based, human; conditions: SW480, 48 hours
Experimental: SW480 cells treated with exisulind as described previously are harvested from the microfuge tubes by rinsing once with ice-cold PBS. The cells are lysed by modified RIPA buffer for 15 minutes with agitation. The cell lysate is spun down in a cold room. The supernatants are transferred to fresh microcentrifuge tubes immediately after spinning. BioRad DC Protein Assay (Temecula, Calif.) is performed to determine the protein concentrations in samples. The samples are normalized for protein concentration, as described above.
50 μg of each sample is loaded onto a 10% SDS gel. SDS-PAGE is performed, and the proteins then are transferred to a nitrocellulose membrane. The blotted nitrocellulose membrane is blocked in freshly prepared TBST containing 5% nonfat dry milk for one hour at room temperature with constant agitation.
A goat-anti-PKG primary antibody is diluted to the recommended concentration/dilution in fresh TBST/5% nonfat dry milk. The nitrocellulose membrane is placed in the primary antibody solution and incubated one hour at room temperature with agitation. The nitrocellulose membrane is washed three times for ten minutes each with TBST. […]
This observation was made by culturing SW480 cells with either 200, 400 or 600 μM exisulind or vehicle (0.1% DMSO). […] Immuno-reactive protein can be detected by Western blot. […]

[6] = test system: PKG activity in HCT116 colon cancer cells; assay: PKG assay on lysates of drug-treated HCT116 cells; assay type: cell-based
Description: To test the effect of cGMP-specific PDE inhibition on neoplasia containing the β-catenin mutation, HCT116 colon cancer cells were employed. HCT116 is known to contain the β-catenin mutation, but is known not to contain the APC mutation.
The same procedure is used to grow the HCT116 cells as is used in the SW480 procedure described above. In this experiment, only exisulind and controls were used.

[7] = Toxicity study in dogs (capsules); assay type: in vivo
[8] = test system: PrEC primary prostate epithelial cell cultures; assay: Histone-associated DNA fragmentation in normal prostate epithelial cells; assay type: cell-based; conditions: 50 μM, up to 4 days
Experimental: (§4) The androgen-sensitive prostate tumor cell line, LNCaP (from ATCC (Rockville, Md.)) was propagated under standard conditions using […] medium containing 5% fetal calve serum and 2 mM glutamine. Primary prostate epithelial cell cultures (PrEC) derived from normal prostate (from Clonetics Inc. (San Diego, Calif.)) were grown under the same conditions as the tumor cell line except a serum-free medium optimized for the growth of such cultures was used (Clonetics Inc). For the experiments, LNCaP or PrEC cells were seeded in 96 well plates at a density of 10,000 cells per well. After 24 hours, the cells were treated with either vehicle (0.1% DMSO) or 50 μM Compound I (free base) solubilized in DMSO. After various drug treatment times (4, 24, 48, 72, or 99 hours) the cells were lysed and processed for measurement of histone-associated DNA as an indicator of apoptotic cell death (see, Piazza et al., Cancer Research 57: 2452-2459, 1997).

[9] = test system: H460 large cell carcinoma cell line; assay: Cell growth, alone and in combination with vinca alkaloid; assay type: cell-based, human
Experimental: as §1, §2, §3

[10] = rat, in vivo, 2000 mg/kg/day
[11] = test system: LNCaP prostate tumor cell line; assay: Histone-associated DNA fragmentation in prostate tumor cells; assay type: cell-based; conditions: 50 μM, up to 4 days, free base
Experimental: as §4, with “After 24 hours, the cells were treated with either vehicle (0.1% DMSO) or 50 μM Compound I (free base) solubilized in DMSO.” left out

[12] = Seven-day dose-range finding study in rats; assay type: in vivo
[13] = Acute toxicity study in rats; assay type: in vivo
[14] = in vivo

T1 sequence (O76074 46-539 limits assumed): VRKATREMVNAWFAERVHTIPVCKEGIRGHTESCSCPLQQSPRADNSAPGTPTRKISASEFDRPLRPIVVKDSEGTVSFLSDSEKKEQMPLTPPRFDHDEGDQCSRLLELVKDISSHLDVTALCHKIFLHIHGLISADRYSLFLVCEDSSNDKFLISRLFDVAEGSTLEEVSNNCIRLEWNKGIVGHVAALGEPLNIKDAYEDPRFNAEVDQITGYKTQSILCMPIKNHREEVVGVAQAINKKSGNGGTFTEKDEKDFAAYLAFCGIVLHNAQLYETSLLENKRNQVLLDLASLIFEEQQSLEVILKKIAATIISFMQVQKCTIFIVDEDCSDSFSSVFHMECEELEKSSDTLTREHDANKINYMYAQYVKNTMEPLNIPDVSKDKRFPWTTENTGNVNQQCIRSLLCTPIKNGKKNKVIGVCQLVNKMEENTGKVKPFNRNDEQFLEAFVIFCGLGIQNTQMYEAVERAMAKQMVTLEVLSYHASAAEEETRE

O=C(O)C1CCN(c2nc(NCc3ccc4c(c3)OCO4)c3cc(Cl)ccc3n2)CC1 [Compound E4021]
Sensitivity of Peak B cGMP PDE activity [1]: resistant
Competition with cGMP for binding of GST-cGB-PDE5 [2]: do not bind to the cGMP binding sites of PDE5

CC1=C(CC(=O)O)c2cc(F)ccc2/C1=C\c1ccc(S(C)(=O)=O)cc1 [Exisulind, 5-fluoro-2-methyl-1-(p-methylsulfonylbenzylidene)-3-indenylacetic acid]
Side effects at recommended dose ([3]; 300-600 mg/day): no significant side effects
Side effects above recommended dose ([3]; doses higher than the recommended therapeutic levels, reversible): can lead to elevated levels of liver enzymes
Lower concentration required on continuous exposure than 1-hour exposure for same effect [4]: ~10 fold
activity at 400 µg/mL ([4]; Homo sapiens, Calu-6, 1 h, Calu-6, 1-hour exposure, 400 μg/ml, read-out: % of control growth): 54%
Effect when combined with vinca alkaloid [4]: additive cytotoxic effect
β-catenin and PKG levels by Western blot [5]: causes the drop of β-catenin and the increase of PKG
Competition with cGMP for binding of GST-cGB-PDE5 [2]: do not bind to the cGMP binding sites of PDE5
PKG activation relative to control [6]: yielded PKG that was phosphorylated to a greater extent than the corresponding controls

CC1=C(CC(=O)NCc2ccccc2)c2cc(F)ccc2/C1=C\c1ccncc1.Cl [Compound I, (Z)-5-fluoro-2-methyl-(4-pyridylidene)-3-(N-benzyl)indenylacetamide hydrochloride]
oral LD50 [7]: greater than 1000 mg/kg
Toxicity, single dose in capsules ([7]; 1000 mg/kg): no signs of toxicity
Drug-related effects, single dose and seven consecutive doses ([7]; 1000 mg/kg/day): At no time in either dosing phase were any obvious signs of drug-related effects observed
DNA fragmentation [8]: did not affect DNA fragmentation for up to 4 days of treatment
Strength in inhibiting cell growth relative to exisulind ([4]; Calu-6): 80-100 fold
% of control growth ([4]; Calu-6, 1-hour exposure, 5 mcg/ml): 47%
Lower concentration required on continuous exposure than 1-hour exposure for same effect [4]: 25 fold
Effect when combined with vinca alkaloid [4]: additive cytotoxic effect
Strength in inhibiting cell growth relative to exisulind [9]: 80-100 fold
28-day histopathological evaluation [10]: traces of follicular cell hypertrophy, increased numbers of mitotic figures (suggestive of possible cell proliferation) in the thyroid gland and mild centrilobular hypertrophy in the liver
28-day liver weights [10]: statistically significant increase in liver weights
28-day thyroid weights [10]: statistically significant increases in thyroid weights
Histone-associated fragmented DNA [11]: A significant increase in fragmented DNA was detected after 24 hours of treatment; also recorded: time-dependent increase in the amount of histone-associated fragmented DNA
Seven-day toxicity findings ([12]; 50 mg/kg/day): no observable signs of toxicity
Seven-day toxicity findings ([12]; 500 mg/kg/day): treatment-related effects were limited to an increase in absolute and relative liver weights in female rats
Seven-day toxicity findings ([12]; 2000 mg/kg/day): labored breathing and/or abnormal respiratory sounds, decreased weights gains and food consumption in male rats, and increased liver weights in female rats
Seven-day hematology, blood chemistry, microscopic pathology ([12]; any dose level): No hematological or blood chemistry changes nor any microscopic pathology changes
intraperitoneal LD50 [13]: greater than 1000 mg/kg
oral LD50 [13]: > 4000 mg/kg
Acute toxicity, single intraperitoneal dose ([13]; intraperitoneal, 1000 mg/kg): reduced body weight gain, with mesenteric adhesions seen in some animals
Acute toxicity, single oral dose ([13]; oral, 4000 mg/kg): body weight gains were slightly reduced
Acute toxicity, single oral doses ([13]; oral, up to and including 2000 mg/kg): no observable signs of toxicity
Safety [14]: safe in animal studies and in a single, escalating dose human study
